Numbered stars: 1 amine (or outer) side, 2 acyl side, 3 side chain; on linkers, the order of the positions; unused ones are H or OH. Square brackets hold non-standard residues; d marks the D form. Side chains are listed from the residue outwards. Peptide text beside a SMILES is read from it. * marks the point of attachment. C20 diacid = O=C(O)CCCCCCCCCCCCCCCCCCC(=O)*; C18 diacid = O=C(O)CCCCCCCCCCCCCCCCC(=O)*; γGlu = O=C(O)[C@H](CCC(=O)[*:2])N[*:1]; αMeY = C[C@](N)(Cc1ccc(O)cc1)C(=O)O; αMeL = CC(C)C[C@](C)(N)C(=O)O; Orn = NCCC[C@H](N)C(=O)O; AEEA = NCCOCCOCC(=O)O; Aib = CC(C)(N)C(=O)O

The target in one experiment is T1, human GIP receptor (Homo sapiens, UniProt P48546).
T1 construct: expressed in transfected cells; crude membranes
T1 sequence (P48546 22-466): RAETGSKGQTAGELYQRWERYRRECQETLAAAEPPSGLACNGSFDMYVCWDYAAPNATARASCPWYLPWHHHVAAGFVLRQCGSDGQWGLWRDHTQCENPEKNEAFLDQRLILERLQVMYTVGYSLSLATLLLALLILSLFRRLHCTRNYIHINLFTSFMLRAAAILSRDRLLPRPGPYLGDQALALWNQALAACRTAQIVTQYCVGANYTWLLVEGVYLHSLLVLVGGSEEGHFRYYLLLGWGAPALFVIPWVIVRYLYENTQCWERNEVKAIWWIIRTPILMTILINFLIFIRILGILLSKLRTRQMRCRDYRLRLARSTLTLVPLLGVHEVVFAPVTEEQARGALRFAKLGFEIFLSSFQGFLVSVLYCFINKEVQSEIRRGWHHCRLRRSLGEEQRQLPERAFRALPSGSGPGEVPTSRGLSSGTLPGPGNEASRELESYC
The experiment is described as follows: [125I]-GIP binding (SPA), human GIP receptor. The note with it: read-out: hGIPR Ki, nM (SEM, n).

The target of experiment [1] is T2, human GLP-1R (Homo sapiens, UniProt P43220). The experiment is described as follows: [125I]-GLP-1 binding (SPA), human GLP-1 receptor. Also noted: expressed in transfected cells; crude membranes. The note with it: read-out: hGLP1R Ki, (nM) (SEM, n). Put shortly:
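Membranes: hypotonic lysis (50 mM Tris HCl, pH 7.5, protease inhibitors), Potter-Elvehjem homogenization, high-speed pellet (35000×g 1 h or 25000×g 30 min, 4° C.). Buffer: 25 mM HEPES pH 7.4, 2.5 mM CaCl2, 1 mM MgCl2. Four-parameter IC50 fit; Ki as geometric mean ± SEM.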

The target of a further experiment is T3, human Gcg receptor (Homo sapiens, UniProt P47871).
T3 construct: expressed in transfected cells; crude membranes
The experiment can be described thus: [125I]-Glucagon binding (SPA), human Gcg receptor. To be noted: read-out: hGLcgR Ki, nM (SEM, n). Put shortly:
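Crude membranes from cells expressing the receptor, prepared by hypotonic lysis in 50 mM Tris HCl pH 7.5 with protease inhibitors, homogenization and differential centrifugation, were used in a WGA-bead SPA. Binding buffer: 25 mM HEPES pH 7.4, 2.5 mM CaCl2, 1 mM MgCl2, bacitracin, Tween-20.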

For experiment [2], the target named is T4, gastric inhibitory peptide receptor (GIPR) (Homo sapiens, UniProt P48546).
T4 sequence (P48546 22-466): T1 sequence (P48546 22-466)
The experiment is described as follows: cAMP pharmacological functional assay in presence of casein, hGIPR. Format: cell-based. To be noted: HEK293 cells expressing hGIPR, 0.1% Casein, geometric mean; read-out: hGIPR cAMP Rel EC50 nM (SEM, n).

The target in experiment [3] is T2, human GLP-1R. The experiment can be described thus: GLP-1R HEK293 cell membrane [35S]GTPγS binding assay. It counts as biochemical. On the set-up: expressed in transfected cells; host or cells: HEK293 cells expressing human GLP-1R; membranes. The note with it: HEK293 cell membranes expressing human GLP-1R, [35S]GTPγS binding; read-out: hGLP1R GTPgS Rel EC50 nM (SEM, n). Summed up: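 Agonist-driven Gαs activation read as [35S]GTPγS ([…]) binding to receptor-expressing HEK293 membranes, 30 min at room temperature, pH 7.4. Detection by anti-Gαs immunocapture on scintillation beads; EC50 derived from four-parameter logistic concentration-response fit.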
A general note: GTPγS resists hydrolysis and so accumulates on activated G proteins.

Experiment [4] has as its target human GLP-1 receptor (GLP-1R) (Homo sapiens, UniProt P43220). The experiment is described as follows: cAMP pharmacological functional assay in presence of casein, hGLP-1R. It counts as cell-based. To be noted: HEK293 cells expressing hGLP-1R, 0.1% Casein, geometric mean; read-out: hGLP1R cAMP Rel EC50 nM (SEM, n).
In experiment [5] the target is T2, human GLP-1R. The experiment can be described thus: GLP-1R CHO cell β-arrestin recruitment assay. It counts as cell-based. Also noted: host or cells: CHO-K1 PathHunter cells, assay-ready frozen. To be noted: for EC50: CHO-K1 cells, PathHunter β-arrestin-2 recruitment, 0.1% casein, read-out: hGLP1R B-Arrestin2 Rel EC50 uM (SEM, n); for hGLP1R B-Arrestin2 % Top: normalized to GLP-1 maximum control. Put shortly: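 Peptide-induced β-arrestin-2 recruitment measured by enzyme-fragment complementation luminescence after 90 min at 37 °C plus 60 min detection at RT.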
(In general: Activated receptors often draw arrestin, which recruitment assays turn into a signal.)

Chain of human GLP-1 receptor (GLP-1R) (P43220 24-463): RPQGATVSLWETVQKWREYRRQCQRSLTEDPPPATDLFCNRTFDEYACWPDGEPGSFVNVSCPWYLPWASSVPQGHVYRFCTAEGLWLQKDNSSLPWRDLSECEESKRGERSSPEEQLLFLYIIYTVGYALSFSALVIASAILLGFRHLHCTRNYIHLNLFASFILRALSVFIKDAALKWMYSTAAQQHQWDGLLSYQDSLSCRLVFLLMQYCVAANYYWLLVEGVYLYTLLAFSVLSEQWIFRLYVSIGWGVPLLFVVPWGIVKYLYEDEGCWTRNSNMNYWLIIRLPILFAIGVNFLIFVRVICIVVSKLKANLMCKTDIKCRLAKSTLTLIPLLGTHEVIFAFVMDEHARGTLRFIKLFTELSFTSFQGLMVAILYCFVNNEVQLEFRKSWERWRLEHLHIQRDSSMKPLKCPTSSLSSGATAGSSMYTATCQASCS
T2 sequence (P43220 24-463): as above
T3 sequence (P47871 26-477): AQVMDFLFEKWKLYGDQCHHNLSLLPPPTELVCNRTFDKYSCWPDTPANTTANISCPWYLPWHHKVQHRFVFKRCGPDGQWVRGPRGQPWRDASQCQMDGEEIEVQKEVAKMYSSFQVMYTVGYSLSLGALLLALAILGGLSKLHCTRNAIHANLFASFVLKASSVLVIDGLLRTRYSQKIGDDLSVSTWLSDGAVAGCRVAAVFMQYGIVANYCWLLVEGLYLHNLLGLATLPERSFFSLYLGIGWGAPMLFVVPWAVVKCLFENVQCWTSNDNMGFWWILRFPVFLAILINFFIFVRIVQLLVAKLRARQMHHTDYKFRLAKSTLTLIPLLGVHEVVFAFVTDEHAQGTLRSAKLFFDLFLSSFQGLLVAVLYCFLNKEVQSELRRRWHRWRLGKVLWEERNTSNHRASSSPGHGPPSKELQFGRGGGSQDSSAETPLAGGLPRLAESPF

As to `CC[C@H](C)[C@H](NC(=O)[C@H](CC(C)C)NC(=O)[C@H](Cc1ccc(O)cc1)NC(=O)[C@H](CCC(=O)O)NC(=O)[C@@H](NC(=O)[C@H](Cc1ccccc1)NC(=O)[C@H](C)NC(=O)C(C)(C)NC(=O)[C@H](CCC(N)=O)NC(=O)[C@H](C)NC(=O)[C@H](CCCCNC(=O)COCCOCCNC(=O)COCCOCCNC(=O)CC[C@H](NC(=O)CCCCCCCCCCCCCCCCCCC(=O)O)C(=O)O)NC(=O)[C@H](CCCN)NC(=O)[C@H](CC(=O)O)NC(=O)[C@H](CC(C)C)NC(=O)[C@](C)(CC(C)C)NC(=O)[C@@H](NC(=O)[C@H](CO)NC(=O)[C@H](Cc1ccc(O)cc1)NC(=O)[C@H](CC(=O)O)NC(=O)[C@H](CO)NC(=O)[C@@H](NC(=O)[C@H](Cc1ccccc1)NC(=O)[C@@H](NC(=O)CNC(=O)[C@H](CCC(=O)O)NC(=O)C(C)(C)NC(=O)[C@H](N)Cc1ccc(O)cc1)[C@@H](C)O)[C@@H](C)O)[C@@H](C)CC)C(C)C)C(=O)N[C@@H](C)C(=O)NCC(=O)NCC(=O)N1CCC[C@H]1C(=O)N[C@@H](CO)C(=O)N[C@@H](CO)C(=O)NCC(=O)N[C@@H](C)C(=O)N1CCC[C@H]1C(=O)N1CCC[C@H]1C(=O)N1CCC[C@H]1C(=O)N[C@@H](CO)C(N)=O` [Example 358] (H-[dY][Aib]EGTFTSDYSI[αMeL]LD[Orn]K([AEEA-AEEA-γGlu-C20 diacid])AQ[Aib]AFVEYLIAGGPSSGAPPPS-NH2; N-terminus assumed), the Ki at human GIP receptor was 0.0636 nM; at human GLP-1R [1], 1.37 nM; at human Gcg receptor it was 915 nM. In addition, the EC50 in experiment [2] amounted to 0.183 nM; on human GLP-1R [3], 0.414 nM; in experiment [4], 0.117 nM; at human GLP-1R [5], 0.00938 µM. Also, the “hGLP1R B-Arrestin2 % Top” value on human GLP-1R [5] is recorded as 21.4%.
With `CC[C@H](C)[C@H](NC(=O)[C@H](CC(C)C)NC(=O)[C@H](Cc1ccc(O)cc1)NC(=O)[C@H](CCC(=O)O)NC(=O)[C@@H](NC(=O)[C@H](Cc1ccccc1)NC(=O)[C@H](CCC(=O)O)NC(=O)C(C)(C)NC(=O)[C@H](CCC(N)=O)NC(=O)[C@H](C)NC(=O)[C@H](CCCCNC(=O)COCCOCCNC(=O)COCCOCCNC(=O)CC[C@H](NC(=O)CCCCCCCCCCCCCCCCCCC(=O)O)C(=O)O)NC(=O)[C@H](CCCN)NC(=O)[C@H](CC(=O)O)NC(=O)[C@H](CC(C)C)NC(=O)[C@](C)(CC(C)C)NC(=O)[C@@H](NC(=O)[C@H](CO)NC(=O)[C@H](Cc1ccc(O)cc1)NC(=O)[C@H](CC(=O)O)NC(=O)[C@H](CO)NC(=O)[C@@H](NC(=O)[C@H](Cc1ccccc1)NC(=O)[C@@H](NC(=O)CNC(=O)[C@H](CCC(=O)O)NC(=O)C(C)(C)NC(=O)[C@H](N)Cc1ccc(O)cc1)[C@@H](C)O)[C@@H](C)O)[C@@H](C)CC)C(C)C)C(=O)N[C@@H](C)C(=O)NCC(=O)NCC(=O)N1CCC[C@H]1C(=O)N[C@@H](CO)C(=O)N[C@@H](CO)C(=O)NCC(=O)N[C@@H](C)C(=O)N1CCC[C@H]1C(=O)N1CCC[C@H]1C(=O)N1CCC[C@H]1C(=O)N[C@@H](CO)C(N)=O` [Example 359] (H-[dY][Aib]EGTFTSDYSI[αMeL]LD[Orn]K([AEEA-AEEA-γGlu-C20 diacid])AQ[Aib]EFVEYLIAGGPSSGAPPPS-NH2), the Ki at human GIP receptor was 0.0874 nM; on human GLP-1R [1], 2.59 nM; at human Gcg receptor it was > 982 nM. The EC50 amounted to 0.172 nM in experiment [2], 0.496 nM on human GLP-1R [3], 0.131 nM in experiment [4] and 0.0841 µM at human GLP-1R [5]. Moreover, the “hGLP1R B-Arrestin2 % Top” value at human GLP-1R [5] is 28.4%.
With `CC[C@H](C)[C@H](NC(=O)[C@H](CC(C)C)NC(=O)[C@H](Cc1ccc(O)cc1)NC(=O)[C@@H](CCC(=O)O)NC(=O)[C@@H](NC(=O)[C@H](Cc1ccccc1)NC(=O)[C@H](C)NC(=O)C(C)(C)NC(=O)[C@H](CCC(N)=O)NC(=O)[C@H](C)NC(=O)[C@H](CCCCNC(=O)COCCOCCNC(=O)COCCOCCNC(=O)CC[C@H](NC(=O)CCCCCCCCCCCCCCCCC(=O)O)C(=O)O)NC(=O)[C@H](CCCN)NC(=O)[C@H](CC(=O)O)NC(=O)[C@H](CC(C)C)NC(=O)[C@](C)(CC(C)C)NC(=O)[C@@H](NC(=O)[C@H](CO)NC(=O)[C@H](Cc1ccc(O)cc1)NC(=O)[C@H](CC(=O)O)NC(=O)[C@H](CO)NC(=O)[C@@H](NC(=O)[C@H](Cc1ccccc1)NC(=O)[C@@H](NC(=O)CNC(=O)[C@H](CCC(=O)O)NC(=O)C(C)(C)NC(=O)[C@H](N)Cc1ccc(O)cc1)[C@@H](C)O)[C@@H](C)O)[C@@H](C)CC)[C@@H](C)CC)C(=O)N[C@@H](C)C(=O)NCC(=O)NCC(=O)N1CCC[C@H]1C(=O)N[C@@H](CO)C(=O)N[C@@H](CO)C(=O)NCC(=O)N[C@@H](C)C(=O)N1CCC[C@H]1C(=O)N1CCC[C@H]1C(=O)N1CCC[C@H]1C(=O)N[C@@H](CO)C(N)=O` [Example 363] (H-[dY][Aib]EGTFTSDYSI[αMeL]LD[Orn]K([AEEA-AEEA-γGlu-C18 diacid])AQ[Aib]AFI[dE]YLIAGGPSSGAPPPS-NH2), the Ki at human GIP receptor is 0.17 nM; at human GLP-1R [1], 3.89 nM; on human Gcg receptor, > 1020 nM. The EC50 worked out at 0.145 nM in experiment [2], 0.943 nM on human GLP-1R [3], 0.208 nM in experiment [4] and 0.135 µM at human GLP-1R [5]. Further, the “hGLP1R B-Arrestin2 % Top” value on human GLP-1R [5] was 22.1%.
Turning to `CC[C@H](C)[C@H](NC(=O)[C@H](CC(C)C)NC(=O)[C@](C)(Cc1ccc(O)cc1)NC(=O)[C@H](CCC(=O)O)NC(=O)[C@@H](NC(=O)[C@H](Cc1ccccc1)NC(=O)[C@H](CCC(=O)O)NC(=O)C(C)(C)NC(=O)[C@H](CCC(N)=O)NC(=O)[C@H](C)NC(=O)[C@H](CCCCNC(=O)COCCOCCNC(=O)COCCOCCNC(=O)CC[C@H](NC(=O)CCCCCCCCCCCCCCCCCCC(=O)O)C(=O)O)NC(=O)[C@H](CCCCN)NC(=O)[C@H](CC(=O)O)NC(=O)[C@H](CC(C)C)NC(=O)[C@](C)(CC(C)C)NC(=O)[C@@H](NC(=O)[C@H](CO)NC(=O)[C@H](Cc1ccc(O)cc1)NC(=O)[C@H](CC(=O)O)NC(=O)[C@H](CO)NC(=O)[C@@H](NC(=O)[C@H](Cc1ccccc1)NC(=O)[C@@H](NC(=O)CNC(=O)[C@H](CCC(=O)O)NC(=O)C(C)(C)NC(=O)[C@@H](N)Cc1ccc(O)cc1)[C@@H](C)O)[C@@H](C)O)[C@@H](C)CC)[C@@H](C)CC)C(=O)N[C@@H](C)C(=O)NCC(=O)NCC(=O)N1CCC[C@H]1C(=O)N[C@@H](CO)C(=O)N[C@@H](CO)C(=O)NCC(=O)N[C@@H](C)C(=O)N1CCC[C@H]1C(=O)N1CCC[C@H]1C(=O)N1CCC[C@H]1C(=O)N[C@@H](CO)C(N)=O` [Example 367] (H-Y[Aib]EGTFTSDYSI[αMeL]LDKK([AEEA-AEEA-γGlu-C20 diacid])AQ[Aib]EFIE[αMeY]LIAGGPSSGAPPPS-NH2), the values for the Ki at human GIP receptor, on human GLP-1R [1] and on human Gcg receptor were 0.0282 nM, 0.809 nM and 777 nM, respectively. For the same compound, the EC50 in experiment [2] was found to be 0.0179 nM; on human GLP-1R [3], 0.289 nM; in experiment [4] it was 0.0641 nM; at human GLP-1R [5], 0.00666 µM. The “hGLP1R B-Arrestin2 % Top” value at human GLP-1R [5] is recorded as 70.6%.

The Ki is the dissociation constant of the complex between target and ligand, obtained from inhibition or displacement. The term EC50 denotes the midpoint of the concentration-response curve.
